In paper PMC7017600 (Antiviral research, 2019):
Where a name gives a salt, the structure may show the parent alone. Read-outs that look alike come from different tables or passages of the source.

Tests used:
[1] = target: T1, BPLF1 1–246 (Epstein-Barr virus, UniProt P03186)
[2] = target: T1, BPLF1 1–246; experiment: biochemical
[3] = target: T1, BPLF1 1–246; experiment: K63-linked ubiquitin chain cleavage assay; format: biochemical, Epstein Barr Virus (EBV); details: 10 μM inhibitor, 25 nM BPLF1 1–246, 2 μg K63-linked chains, overnight 37 °C, SDS gel
[4] = test system: 293 EBV+ cells; experiment: Cell viability by trypan blue exclusion; details: 48 h, concentrations up to 10 μM
[5] = test system: EBV; experiment: EBV infectious virus production, titered on Raji cells; details: 293 EBV+ cells induced with BZLF1, 48 h, at the concentrations tested
[6] = test system: KSHV; details: suramin up to 10 μM; for KSHV genome copy number: qPCR of supernatant of reactivated cells
[7] = target: T2, UCH-L5 (Homo sapiens, UniProt Q9Y5K5); experiment: Suramin selectivity, Ub-Rhodamine 110 assay; format: biochemical
T2 sequence (Q9Y5K5 1-329): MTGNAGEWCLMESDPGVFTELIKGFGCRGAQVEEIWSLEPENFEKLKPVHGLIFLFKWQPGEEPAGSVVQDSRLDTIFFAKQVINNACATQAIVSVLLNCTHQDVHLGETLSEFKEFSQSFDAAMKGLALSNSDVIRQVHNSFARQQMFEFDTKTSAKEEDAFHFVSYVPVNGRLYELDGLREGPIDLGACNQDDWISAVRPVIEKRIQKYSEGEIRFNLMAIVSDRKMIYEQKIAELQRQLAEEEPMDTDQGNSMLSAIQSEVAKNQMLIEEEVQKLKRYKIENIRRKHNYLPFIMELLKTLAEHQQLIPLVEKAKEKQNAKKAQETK

[8] = target: T1, BPLF1 1–246; experiment: Suramin selectivity, Ub-Rhodamine 110 assay; format: biochemical, Epstein Barr Virus (EBV)
[9] = test system: pool of cellular DUBs (293T cell lysate); experiment: Cellular DUB activity in 293T total cell lysate, Ub-Rhodamine 110; format: biochemical; details: 10 μM suramin, 293T lysate
[10] = target: PLPro (Severe acute respiratory syndrome coronavirus, UniProt P0C6X7); experiment: biochemical
[11] = target: T3, Cezanne (Homo sapiens, UniProt Q6GQQ9); experiment: Suramin selectivity, Ub-Rhodamine 110 assay; format: biochemical
T3 sequence (Q6GQQ9 1-843): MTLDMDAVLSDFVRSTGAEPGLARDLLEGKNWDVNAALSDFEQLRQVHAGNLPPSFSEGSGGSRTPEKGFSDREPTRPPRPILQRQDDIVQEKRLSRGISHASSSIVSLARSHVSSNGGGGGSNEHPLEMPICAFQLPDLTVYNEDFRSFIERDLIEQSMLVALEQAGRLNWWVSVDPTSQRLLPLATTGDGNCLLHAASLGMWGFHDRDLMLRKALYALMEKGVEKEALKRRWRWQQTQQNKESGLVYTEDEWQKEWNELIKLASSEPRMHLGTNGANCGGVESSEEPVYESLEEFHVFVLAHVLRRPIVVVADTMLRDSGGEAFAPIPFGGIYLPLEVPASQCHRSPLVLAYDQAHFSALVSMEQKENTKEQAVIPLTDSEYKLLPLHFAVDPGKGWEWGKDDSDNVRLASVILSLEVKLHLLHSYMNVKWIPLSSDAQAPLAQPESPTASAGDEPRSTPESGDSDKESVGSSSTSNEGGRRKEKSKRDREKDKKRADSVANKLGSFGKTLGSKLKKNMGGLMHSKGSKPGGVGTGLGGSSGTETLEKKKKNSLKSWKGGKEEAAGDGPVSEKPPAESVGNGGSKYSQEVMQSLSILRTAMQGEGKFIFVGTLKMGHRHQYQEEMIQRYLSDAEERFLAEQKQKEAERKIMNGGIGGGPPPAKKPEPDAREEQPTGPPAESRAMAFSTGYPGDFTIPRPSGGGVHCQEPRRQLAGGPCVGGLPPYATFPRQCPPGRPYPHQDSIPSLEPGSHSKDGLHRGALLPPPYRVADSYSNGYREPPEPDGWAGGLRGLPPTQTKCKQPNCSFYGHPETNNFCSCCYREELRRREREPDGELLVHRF

[12] = target: T4, JosD2 (Homo sapiens, UniProt Q8TAC2); experiment: Suramin selectivity, Ub-Rhodamine 110 assay; format: biochemical
T4 sequence (Q8TAC2 1-188): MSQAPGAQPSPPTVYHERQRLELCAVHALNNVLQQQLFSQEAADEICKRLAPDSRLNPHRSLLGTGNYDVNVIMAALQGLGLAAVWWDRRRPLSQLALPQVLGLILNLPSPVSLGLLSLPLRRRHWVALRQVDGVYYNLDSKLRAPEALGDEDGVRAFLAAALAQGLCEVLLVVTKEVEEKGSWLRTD

[13] = target: T5, UCH-L1 (Homo sapiens, UniProt P09936); experiment: Suramin selectivity, Ub-Rhodamine 110 assay; format: biochemical
T5 sequence (P09936 1-223): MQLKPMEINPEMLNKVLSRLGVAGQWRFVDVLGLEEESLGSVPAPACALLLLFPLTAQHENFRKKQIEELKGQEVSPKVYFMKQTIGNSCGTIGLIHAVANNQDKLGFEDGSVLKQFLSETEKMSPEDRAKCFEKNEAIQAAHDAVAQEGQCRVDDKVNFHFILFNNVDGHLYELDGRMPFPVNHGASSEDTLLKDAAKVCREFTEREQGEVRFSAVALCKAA

[14] = target: KSHV ORF64 1–205 N terminal fragment (Human herpesvirus 8 type P, UniProt Q2HR64); experiment: ORF64 DUB activity in Ub-Rhodamine 110 assay; details: 10 μM suramin, 30 minutes with Ub-Rhodamine 110
Sequence of KSHV ORF64 1–205 N terminal fragment (Q2HR64 1-205): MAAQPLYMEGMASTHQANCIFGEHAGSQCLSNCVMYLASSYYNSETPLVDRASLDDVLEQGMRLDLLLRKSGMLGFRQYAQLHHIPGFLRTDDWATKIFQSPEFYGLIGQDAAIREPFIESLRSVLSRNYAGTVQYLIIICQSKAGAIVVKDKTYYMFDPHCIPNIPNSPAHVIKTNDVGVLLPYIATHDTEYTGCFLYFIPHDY

[15] = target: Bap1 (Homo sapiens, UniProt Q92560); experiment: Suramin selectivity, Ub-Rhodamine 110 assay; format: biochemical
Sequence of Bap1 (Q92560 whole entry): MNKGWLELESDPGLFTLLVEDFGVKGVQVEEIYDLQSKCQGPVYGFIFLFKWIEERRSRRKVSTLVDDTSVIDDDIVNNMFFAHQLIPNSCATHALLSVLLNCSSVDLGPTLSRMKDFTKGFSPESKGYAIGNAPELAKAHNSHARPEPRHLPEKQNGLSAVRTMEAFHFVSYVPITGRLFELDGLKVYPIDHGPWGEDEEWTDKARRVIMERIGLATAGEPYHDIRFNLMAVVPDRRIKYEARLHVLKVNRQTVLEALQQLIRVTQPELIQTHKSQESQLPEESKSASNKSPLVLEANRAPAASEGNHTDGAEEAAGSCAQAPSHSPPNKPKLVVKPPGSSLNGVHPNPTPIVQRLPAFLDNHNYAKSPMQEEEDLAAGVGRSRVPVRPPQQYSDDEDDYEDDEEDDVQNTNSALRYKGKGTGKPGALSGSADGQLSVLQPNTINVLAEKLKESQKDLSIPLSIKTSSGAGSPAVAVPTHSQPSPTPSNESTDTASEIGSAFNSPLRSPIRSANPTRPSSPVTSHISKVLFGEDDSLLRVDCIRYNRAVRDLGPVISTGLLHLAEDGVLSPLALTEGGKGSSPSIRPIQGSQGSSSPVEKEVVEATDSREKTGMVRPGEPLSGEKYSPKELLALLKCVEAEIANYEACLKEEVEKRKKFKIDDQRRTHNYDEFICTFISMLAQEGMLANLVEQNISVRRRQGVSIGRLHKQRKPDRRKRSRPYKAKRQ

[16] = target: T6, USP8c (Homo sapiens, UniProt P40818); experiment: Suramin selectivity, Ub-Rhodamine 110 assay; format: biochemical
T6 sequence (P40818 777-1109 limits assumed): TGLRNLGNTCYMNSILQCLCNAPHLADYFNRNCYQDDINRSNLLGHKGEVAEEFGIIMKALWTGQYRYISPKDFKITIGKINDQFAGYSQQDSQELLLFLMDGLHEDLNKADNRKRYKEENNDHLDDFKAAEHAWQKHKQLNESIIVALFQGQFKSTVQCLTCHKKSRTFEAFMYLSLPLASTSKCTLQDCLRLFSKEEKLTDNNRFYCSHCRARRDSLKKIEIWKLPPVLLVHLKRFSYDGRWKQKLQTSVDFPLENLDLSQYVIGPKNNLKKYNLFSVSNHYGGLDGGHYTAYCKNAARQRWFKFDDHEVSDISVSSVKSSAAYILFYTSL

[17] = target: T7, Atax3L (Homo sapiens, UniProt Q9H3M9); experiment: Suramin selectivity, Ub-Rhodamine 110 assay; format: biochemical
T7 sequence (Q9H3M9 1-355): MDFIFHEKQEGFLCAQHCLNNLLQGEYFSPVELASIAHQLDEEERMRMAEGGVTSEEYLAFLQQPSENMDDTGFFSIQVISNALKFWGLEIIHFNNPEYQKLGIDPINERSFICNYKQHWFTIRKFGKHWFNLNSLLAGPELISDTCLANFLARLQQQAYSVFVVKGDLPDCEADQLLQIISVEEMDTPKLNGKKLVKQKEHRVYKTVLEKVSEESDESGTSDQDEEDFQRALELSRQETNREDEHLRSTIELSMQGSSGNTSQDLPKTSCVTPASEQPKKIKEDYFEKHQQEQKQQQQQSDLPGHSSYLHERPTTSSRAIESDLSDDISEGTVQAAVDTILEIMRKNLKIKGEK

T1 sequence (P03186 1-246): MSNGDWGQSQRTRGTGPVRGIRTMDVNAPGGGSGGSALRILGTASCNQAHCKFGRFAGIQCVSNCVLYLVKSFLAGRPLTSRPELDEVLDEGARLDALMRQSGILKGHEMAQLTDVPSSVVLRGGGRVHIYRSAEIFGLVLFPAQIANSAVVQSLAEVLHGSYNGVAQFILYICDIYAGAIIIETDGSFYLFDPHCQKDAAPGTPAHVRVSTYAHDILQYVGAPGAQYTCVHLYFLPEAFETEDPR

## NC(Cc1cc(O)c(O)cc1O)C(=O)O (racemic) [6-Hyd roxy-DL-DOPA]
[1]
  IC50: > 10 µM

## O=C(O)C1=CC(=C(c2ccc(O)c(C(=O)O)c2)c2ccc(O)c(C(=O)O)c2)C=CC1=O [Aurintricarboxylic acid]
[2]
  IC50: 3.3 µM

## OC[C@H]1O[C@H]([S-])[C@H](O)[C@@H](O)[C@@H]1O.[Au+] [Aurothioglucose]
[1]
  IC50: 2.5 µM
[3]
  inhibition of K63-linked ubiquitin chain cleavage: inhibited K63-linked chain cleavage
[4]
  cell growth or viability: not inhibit cell growth or viability
[5]
  infectious virus production (in words): did not result in decreased virus production

## Cc1cc2c(C(C)C)c(O)c(O)c(C=O)c2c(O)c1-c1c(C)cc2c(C(C)C)c(O)c(O)c(C=O)c2c1O [Gossypol]
[2]
  IC50: 3 µM

## CN(N=O)c1ccc(O)c(O)c1 [Me-3,4-dephostatin]
[1]
  IC50: > 10 µM

## O=C(Nc1cccc(C(=O)Nc2ccc(S(=O)(=O)O)c3cc(S(=O)(=O)O)cc(S(=O)(=O)O)c23)c1)Nc1cccc(C(=O)Nc2ccc(S(=O)(=O)O)c3cc(S(=O)(=O)O)cc(S(=O)(=O)O)c23)c1 [NF 023]
[1]
  IC50: 6.1 µM

## O=C1C(SCCO)=C(SCCO)C(=O)c2ccccc21 [NSC 95397]
[1]
  IC50: 4.8 µM
[3]
  inhibition of K63-linked ubiquitin chain cleavage: inhibited K63-linked chain cleavage

## Cc1nc(N=Nc2cc(S(=O)(=O)O)c3cc([N+](=O)[O-])cc(S(=O)(=O)O)c3c2)c(COP(=O)(O)O)c(C=O)c1O [PPNDS tetrasodium]
[1]
  IC50: > 10 µM

## C[C@]12C=CC(=O)C=C1CC[C@@H]1C2=CC[C@]2(C)[C@@H](C(=O)CN3CCN(c4cc(N5CCCC5)nc(N5CCCC5)n4)CC3)CC[C@@H]12 [U-74389G maleate]
[1]
  IC50: 3.4 µM

## CC1(C)CCC2=C(O1)c1ccccc1C(=O)C2=O [beta-lapachone]
[2]
  IC50: 2.5 µM
[3]
  inhibition of K63-linked ubiquitin chain cleavage: inhibited K63-linked chain cleavage

## Cc1ccc(C(=O)Nc2ccc(S(=O)(=O)O)c3cc(S(=O)(=O)O)cc(S(=O)(=O)O)c23)cc1NC(=O)c1cccc(NC(=O)Nc2cccc(C(=O)Nc3cc(C(=O)Nc4ccc(S(=O)(=O)O)c5cc(S(=O)(=O)O)cc(S(=O)(=O)O)c45)ccc3C)c2)c1 [suramin, Suramin sodium salt]
[6]; % reactivation of latently infected cells
  KSHV reactivation from latency: no significant effect
[6]
  KSHV genome copy number: no significant effect
[6]; listed as Suramin
  KSHV genome copy number: does not inhibit genome copy production
[6]; supernatants 72 h post dox, infection of naïve 293 cells
  KSHV infectious virus production: no significant effect
[7]
  IC50: 1.5 µM
[8]
  IC50: 3.3 µM
[9]
  inhibition of the pool of cellular DUBs: about 50%
[2]
  IC50: 0.98 µM
[10]
  IC50: 3.2 µM
[11]
  IC50: 1.6 µM
[12]
  IC50: 28 µM
[13]
  IC50: 3.6 µM
[3]
  inhibition of K63-linked ubiquitin chain cleavage: inhibited K63-linked chain cleavage
[14]
  decrease in ORF64 DUB activity: > 80%
[15]
  IC50: 3.4 µM
[16]
  IC50: 3 µM
[17]
  IC50: 2.6 µM

## Ub-aldehyde
[1]; 5 μM Ub-aldehyde (low signal control)
  inhibition of BPLF1 1–246 DUB activity: approximately 95%
